Results published in patent US20240043404A1 (AbbVie Inc., priority 2009, published 2024).
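Further: acute lymphoblastic leukemia line RS4,11, EC50 derived from percentage of viable cells after treatment relative to untreated controls, cell killing taken as a measure of Bcl-2 inhibition.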

What follows are compounds tested on RS4;11 cells (assay: RS4;11 cell viability assay (CellTiter Glo)). Conditions: Homo sapiens, RS4-11, 48 h, 50,000 cells per well, 10% human serum, 48 hours; read-out: RS4; 11 EC50 Values.
Assay type: cell-based, human
Experimental: The acute lymphoblastic leukemia (ALL) cell line RS4;11 was used as the primary human cell line to assess the cellular activity of Bcl-2 selective agents in vitro and their efficacy in vivo.
Cell cytotoxicity EC50 values were assessed using CellTiter Glo (Promega) according to the manufacturer's recommendations. The EC50 values were determined as a percentage of viable cells following treatment compared to the untreated control cells.
`CC1(C)CCC(CN2CCN(c3ccc(C(=O)NS(=O)(=O)c4ccc(NCCCN(C5CC5)C5COC5)c([N+](=O)[O-])c4)c(Oc4cnc5[nH]ccc5c4)c3)CC2)=C(c2ccc(Cl)cc2)C1` [Example 311, 4-(4-{[2-(4-chlorophenyl)-4,4-dimethylcyclohex-1-en-1-yl]methyl}piperazin-1-yl)-N-{[4-({3-[cyclopropyl(oxetan-3-yl)amino]propyl}amino)-3-nitrophenyl]sulfonyl}-2-(1H-pyrrolo[2,3-b]pyridin-5-yloxy)benzamide] gave an EC50 of 35.8 nM.
For `CN1CCC[C@H]1C(=O)N1CCC(COc2ccc(S(=O)(=O)NC(=O)c3ccc(N4CCN(CC5=C(c6ccc(Cl)cc6)CC(C)(C)CC5)CC4)cc3Oc3cnc4[nH]ccc4c3)cc2Cl)CC1` [Example 312, N-[(3-chloro-4-{[1-(1-methyl-L-prolyl)piperidin-4-yl]methoxy}phenyl)sulfonyl]-4-(4-{[2-(4-chlorophenyl)-4,4-dimethylcyclohex-1-en-1-yl]methyl}piperazin-1-yl)-2-(1H-pyrrolo[2,3-b]pyridin-5-yloxy)benzamide], the EC50 was 16.2 nM.
`CC1(C)CCC(CN2CCN(c3ccc(C(=O)NS(=O)(=O)c4cc(F)c(F)c(OCC5(F)CCOCC5)c4)c(Oc4cnc5[nH]ccc5c4)c3)CC2)=C(c2ccc(Cl)cc2)C1` [Example 313, 4-(4-{[2-(4-chlorophenyl)-4,4-dimethylcyclohex-1-en-1-yl]methyl}piperazin-1-yl)-N-({3,4-difluoro-5-[(4-fluorotetrahydro-2H-pyran-4-yl)methoxy]phenyl}sulfonyl)-2-(1H-pyrrolo[2,3-b]pyridin-5-yloxy)benzamide] showed an EC50 of over 1000 nM.
For `CC1(C)CCC(CN2CCN(c3ccc(C(=O)NS(=O)(=O)c4cnc(OC[C@@H]5CN(C6CC6)CCO5)c(Cl)c4)c(Oc4cnc5[nH]ccc5c4)c3)CC2)=C(c2ccc(Cl)cc2)C1` [Example 314, N-[(5-chloro-6-{[(2S)-4-cyclopropylmorpholin-2-yl]methoxy}pyridin-3-yl)sulfonyl]-4-(4-{[2-(4-chlorophenyl)-4,4-dimethylcyclohex-1-en-1-yl]methyl}piperazin-1-yl)-2-(1H-pyrrolo[2,3-b]pyridin-5-yloxy)benzamide], the EC50 was 660 nM.
`CC1(C)CCC(CC2CCN(c3ccc(C(=O)NS(=O)(=O)c4ccc(NCC5CCOCC5)c([N+](=O)[O-])c4)c(Oc4cnc5[nH]ccc5c4)c3)CC2)=C(c2ccc(Cl)cc2)C1` [Example 315, 4-(4-{[2-(4-chlorophenyl)-4,4-dimethylcyclohex-1-en-1-yl]methyl}piperidin-1-yl)-N-({3-nitro-4-[(tetrahydro-2H-pyran-4-ylmethyl)amino]phenyl}sulfonyl)-2-(1H-pyrrolo[2,3-b]pyridin-5-yloxy)benzamide] gave an EC50 of 210 nM.
`CC1(C)CCC(CC2CCN(c3ccc(C(=O)NS(=O)(=O)c4ccc(OCC5CCOCC5)c(Cl)c4)c(Oc4cnc5[nH]ccc5c4)c3)CC2)=C(c2ccc(Cl)cc2)C1` [Example 316, 4-(4-{[2-(4-chlorophenyl)-4,4-dimethylcyclohex-1-en-1-yl]methyl}piperidin-1-yl)-N-{[3-chloro-4-(tetrahydro-2H-pyran-4-ylmethoxy)phenyl]sulfonyl}-2-(1H-pyrrolo[2,3-b]pyridin-5-yloxy)benzamide] gave an EC50 of over 1000 nM.
`COC(=O)N1CCOC(CNc2ccc(S(=O)(=O)NC(=O)c3ccc(N4CCN(CC5=C(c6ccc(Cl)cc6)CC(C)(C)CC5)CC4)cc3Oc3cnc4[nH]ccc4c3)cc2[N+](=O)[O-])C1` (stereo not shown) [Example 317, methyl 2-{[(4-{[4-(4-{[2-(4-chlorophenyl)-4,4-dimethylcyclohex-1-en-1-yl]methyl}piperazin-1-yl)-2-(1H-pyrrolo[2,3-b]pyridin-5-yloxy)benzoyl]sulfamoyl}-2-nitrophenyl)amino]methyl}morpholine-4-carboxylate] was tested, and the EC50 was 13.3 nM.
Work on `CCN(C)C(=O)N1CCOC(CNc2ccc(S(=O)(=O)NC(=O)c3ccc(N4CCN(CC5=C(c6ccc(Cl)cc6)CC(C)(C)CC5)CC4)cc3Oc3cnc4[nH]ccc4c3)cc2[N+](=O)[O-])C1` (stereo not shown) [Example 318, 2-{[(4-{[4-(4-{[2-(4-chlorophenyl)-4,4-dimethylcyclohex-1-en-1-yl]methyl}piperazin-1-yl)-2-(1H-pyrrolo[2,3-b]pyridin-5-yloxy)benzoyl]sulfamoyl}-2-nitrophenyl)amino]methyl}-N-ethyl-N-methylmorpholine-4-carboxamide] yielded an EC50 of 11.6 nM.
With `CC1(C)CCC(CN2CCN(c3ccc(C(=O)NS(=O)(=O)c4ccc(NCC5CN(S(C)(=O)=O)CCO5)c([N+](=O)[O-])c4)c(Oc4cnc5[nH]ccc5c4)c3)CC2)=C(c2ccc(Cl)cc2)C1` (stereo not shown) [Example 319, 4-(4-{[2-(4-chlorophenyl)-4,4-dimethylcyclohex-1-en-1-yl]methyl}piperazin-1-yl)-N-{[4-({[4-(methylsulfonyl)morpholin-2-yl]methyl}amino)-3-nitrophenyl]sulfonyl}-2-(1H-pyrrolo[2,3-b]pyridin-5-yloxy)benzamide] the EC50 was 4.5 nM.
With `CC1(C)CCC(CN2CCN(c3ccc(C(=O)NS(=O)(=O)c4ccc(NCCCN(C5CCC5)C5CC5)c([N+](=O)[O-])c4)c(Oc4cnc5[nH]ccc5c4)c3)CC2)=C(c2ccc(Cl)cc2)C1` [Example 320, 4-(4-{[2-(4-chlorophenyl)-4,4-dimethylcyclohex-1-en-1-yl]methyl}piperazin-1-yl)-N-{[4-({3-[cyclobutyl(cyclopropyl)amino]propyl}amino)-3-nitrophenyl]sulfonyl}-2-(1H-pyrrolo[2,3-b]pyridin-5-yloxy)benzamide] the EC50 was 51 nM.
Compound `O=C(NS(=O)(=O)c1ccc(NCC2CCOCC2)c([N+](=O)[O-])c1)c1ccc(N2CCN(CC3=C(c4ccc(Cl)cc4)CCC(F)(F)C3)CC2)cc1Oc1cnc2[nH]ccc2c1` [Example 321, 4-(4-{[2-(4-chlorophenyl)-5,5-difluorocyclohex-1-en-1-yl]methyl}piperazin-1-yl)-N-({3-nitro-4-[(tetrahydro-2H-pyran-4-ylmethyl)amino]phenyl}sulfonyl)-2-(1H-pyrrolo[2,3-b]pyridin-5-yloxy)benzamide] has an EC50 of 18.8 nM.
With `CC1(C)CCC(CN2CCN(c3ccc(C(=O)NS(=O)(=O)c4ccc(OCC5(F)CCN(C6COC6)CC5)c(Cl)c4)c(Oc4cnc5[nH]ccc5c4)c3)CC2)=C(c2ccc(Cl)cc2)C1` [Example 322, N-[(3-chloro-4-{[4-fluoro-1-(oxetan-3-yl)piperidin-4-yl]methoxy}phenyl)sulfonyl]-4-(4-{[2-(4-chlorophenyl)-4,4-dimethylcyclohex-1-en-1-yl]methyl}piperazin-1-yl)-2-(1H-pyrrolo[2,3-b]pyridin-5-yloxy)benzamide] the EC50 was 12.4 nM.
`CC1(C)CCC(CN2CCN(c3ccc(C(=O)NS(=O)(=O)c4ccc(OCC5CCOC5)c(Cl)c4)c(Oc4cnc5[nH]ccc5c4)c3)CC2)=C(c2ccc(Cl)cc2)C1` (stereo not shown) [Example 323, 4-(4-{[2-(4-chlorophenyl)-4,4-dimethylcyclohex-1-en-1-yl]methyl}piperazin-1-yl)-N-{[3-chloro-4-(tetrahydrofuran-3-ylmethoxy)phenyl]sulfonyl}-2-(1H-pyrrolo[2,3-b]pyridin-5-yloxy)benzamide] was tested, and the EC50 was 717 nM.
`O=C(NS(=O)(=O)c1ccc(NC[C@H]2CC[C@H](O)CC2)c([N+](=O)[O-])c1)c1ccc(N2CCN(CC3=C(c4ccc(Cl)cc4)CCC(F)(F)C3)CC2)cc1Oc1cnc2[nH]ccc2c1` [Example 324, 4-(4-{[2-(4-chlorophenyl)-5,5-difluorocyclohex-1-en-1-yl]methyl}piperazin-1-yl)-N-[(4-{[(trans-4-hydroxycyclohexyl)methyl]amino}-3-nitrophenyl)sulfonyl]-2-(1H-pyrrolo[2,3-b]pyridin-5-yloxy)benzamide] gave an EC50 of 4.53 nM.
`O=C(NS(=O)(=O)c1ccc(OCC2(F)CCOCC2)c(Cl)c1)c1ccc(N2CCN(CC3=C(c4ccc(Cl)cc4)CCC4(CCN(C5COC5)CC4)C3)CC2)cc1Oc1cnc2[nH]ccc2c1` [Example 325, N-({3-chloro-4-[(4-fluorotetrahydro-2H-pyran-4-yl)methoxy]phenyl}sulfonyl)-4-(4-{[9-(4-chlorophenyl)-3-(oxetan-3-yl)-3-azaspiro[5.5]undec-8-en-8-yl]methyl}piperazin-1-yl)-2-(1H-pyrrolo[2,3-b]pyridin-5-yloxy)benzamide] gave an EC50 of 12.3 nM.
In the case of `CC1(C)CCC(CN2CCN(c3ccc(C(=O)NS(=O)(=O)c4ccc(NC[C@@H]5CN(C6CC6)CCO5)c([N+](=O)[O-])c4)c(Oc4cnc5[nH]ccc5c4)c3)CC2)=C(c2ccc(Cl)cc2)C1` [Example 326, 4-(4-{[2-(4-chlorophenyl)-4,4-dimethylcyclohex-1-en-1-yl]methyl}piperazin-1-yl)-N-{[4-({[(2R)-4-cyclopropylmorpholin-2-yl]methyl}amino)-3-nitrophenyl]sulfonyl}-2-(1H-pyrrolo[2,3-b]pyridin-5-yloxy)benzamide], the EC50 is reported as 23.1 nM.
Compound `CC1(C)CCC(CN2CCN(c3ccc(C(=O)NS(=O)(=O)c4ccc(NC[C@H]5CN(C6CC6)CCO5)c([N+](=O)[O-])c4)c(Oc4cnc5[nH]ccc5c4)c3)CC2)=C(c2ccc(Cl)cc2)C1` [Example 327, 4-(4-{[2-(4-chlorophenyl)-4,4-dimethylcyclohex-1-en-1-yl]methyl}piperazin-1-yl)-N-{[4-({[(2S)-4-cyclopropylmorpholin-2-yl]methyl}amino)-3-nitrophenyl]sulfonyl}-2-(1H-pyrrolo[2,3-b]pyridin-5-yloxy)benzamide] has an EC50 of 2.72 nM.
`O=C(NS(=O)(=O)c1ccc(NCC2CCOCC2)c([N+](=O)[O-])c1)c1ccc(N2CCN(CC3=C(c4ccc(Cl)cc4)CC4(CC3)CC4)CC2)cc1Oc1cnc2[nH]ccc2c1` [Example 328, 4-(4-{[5-(4-chlorophenyl)spiro[2.5]oct-5-en-6-yl]methyl}piperazin-1-yl)-N-({3-nitro-4-[(tetrahydro-2H-pyran-4-ylmethyl)amino]phenyl}sulfonyl)-2-(1H-pyrrolo[2,3-b]pyridin-5-yloxy)benzamide] showed an EC50 of 9.88 nM.
In the case of `CC1(C)CCC(CN2CCN(c3ccc(C(=O)NS(=O)(=O)c4cnc(OCC5CCC(N(C6CC6)C6COC6)CC5)c(Cl)c4)c(Oc4cnc5[nH]ccc5c4)c3)CC2)=C(c2ccc(Cl)cc2)C1` (stereo not shown) [Example 329, N-{[5-chloro-6-({4-[cyclopropyl(oxetan-3-yl)amino]cyclohexyl}methoxy)pyridin-3-yl]sulfonyl}-4-(4-{[2-(4-chlorophenyl)-4,4-dimethylcyclohex-1-en-1-yl]methyl}piperazin-1-yl)-2-(1H-pyrrolo[2,3-b]pyridin-5-yloxy)benzamide], the EC50 is reported as 424 nM.
